These are literature values, as cited in US8420367B2, “Polynucleotides encoding mutant hydrolase proteins with enhanced kinetics and functional expression” (Promega Corporation, priority 2006, dated 2013).

The target of the data set is tetracysteine domain in a recombinant protein.

For `O=C1OC2(c3ccccc31)c1ccc(O)c([As]3SCCS3)c1Oc1c2ccc(O)c1[As]1SCCS1` [FLASH, 4′,5′-bis(1,3,2-dithioarsolan-2-yl)fluorescein], the dissociation constant result was “nanomolar or lower”.
